In assay [1] the test system is Trypanosoma brucei brucei. Kind of assay: Antitrypanosomal activity against Trypanosoma brucei brucei GUTat3.1 assessed as parasite growth inhibition measured after 72 hrs by alamar blue staining based analysis. The assay is classed as functional, organism-based. Particulars: GUTat3.1, 72 h. In general terms: Resazurin is reduced to fluorescent resorufin, in cell work by metabolically active cells.

The test system of a further assay is Proteus vulgaris. The assay can be described thus: Antibacterial activity against Proteus vulgaris MTCC 7299 assessed as bacterial growth inhibition incubated for 48 to 72 hrs by agar plate diffusion assay. In kind it is functional. The conditions noted are these: time 48-72 hrs.
Assay [2] deals with Angiotensin-converting enzyme (Homo sapiens, UniProt P12821). Kind of assay: Inhibition of ACE (unknown origin) using hippuryl-histidyl-leucine as substrate pre-incubated with compound for 10 mins followed by substrate addition measured after 60 mins by HPLC analysis.
Assay [3] concerns Pseudopestalotiopsis theae. The assay can be described thus: Antifungal activity against Pestalotiopsis theae assessed as fungal cell growth inhibition. The assay is classed as functional. The conditions noted are these: read-out: ED50 (the source's name).
Assay [4] deals with Colletotrichum gloeosporioides. The assay can be described thus: Antifungal activity against Colletotrichum gloeosporioides assessed as inhibition of fungal growth measured after 72 hrs by micro plate reader analysis. In kind it is functional.
The next assay concerns Staphylococcus aureus. The assay can be described thus: Antibacterial activity against Staphylococcus aureus assessed as bacterial growth inhibition measured after 24 hrs by optical density based analysis. The assay is classed as functional.
The subject of assay [5] is Limimaricola hongkongensis. Kind of assay: Antibacterial activity against Limimaricola hongkongensis assessed as bacterial growth inhibition measured after 24 hrs by optical density based analysis. In kind it is functional.
Another assay concerns Aspergillus niger. Kind of assay: Antifungal activity against Aspergillus niger MTCC 282 assessed as cell growth inhibition measured after 48 to 72 hrs. In kind it is functional. Particulars: time 48-72 hrs.
The test system of assay [6] is Candida albicans. Kind of assay: Antifungal activity against Candida albicans MTCC 227 assessed as cell growth inhibition measured after 48 to 72 hrs. The assay is classed as functional. The conditions noted are these: time 48-72 hrs.
The test system of another assay is Saccharomyces cerevisiae. Kind of assay: Antifungal activity against Saccharomyces cerevisiae MTCC 170 assessed as cell growth inhibition measured after 48 to 72 hrs. The assay is classed as functional. The conditions noted are these: time 48-72 hrs.
Assay [7] in a line: Antioxidant activity assessed as DPPH radical scavenging activity incubated for 30 mins by […] assay. The assay is classed as functional. A general note: Loss of DPPH colour is used to gauge radical scavenging.
Assay [8] relates to Candida albicans. Kind of assay: Antifungal activity against Candida albicans assessed as fungal growth inhibition. The assay is classed as functional.
In the next assay the test system is Meloidogyne incognita. The assay can be described thus: Nematicidal activity against Meloidogyne incognita. The assay is classed as functional. Particulars: read-out: LD50 (the source's name).
Another assay has as its system Meloidogyne javanica. The assay can be described thus: Nematicidal activity against Meloidogyne javanica. The assay is classed as functional. The conditions noted are these: read-out: LD50 (the source's name).
Another assay has as its system SMMC-7721. The assay can be described thus: Antiproliferative activity against human SMMC-7721 cells assessed as cell growth inhibition. In kind it is functional, cell-based.
For the next assay, the system named is SF-268. The assay can be described thus: Cytotoxicity against human SF-268 cells assessed as cell growth inhibition incubated for 48 hrs by MTT assay. The assay is classed as functional, cell-based. Particulars: SF-268, 48 h. (Tetrazolium dyes change colour on reduction, which living cells bring about.)
A further assay has as its system MCF7. The assay can be described thus: Cytotoxicity against human MCF7 cells assessed as cell growth inhibition incubated for 48 hrs by MTT assay. The assay is classed as functional, cell-based. The conditions noted are these: MCF7, 48 h.
In the next assay the test system is NCI-H460. Kind of assay: Cytotoxicity against human NCI-H460 cells assessed as cell growth inhibition incubated for 48 hrs by MTT assay. In kind it is functional, cell-based. Particulars: NCI-H460, 48 h.
The nature of assay [9]: Cytotoxicity against human ACC-MESO-1 cells assessed as cell growth inhibition measured after 48 hrs by WST-8 assay. The assay is classed as functional, cell-based. The conditions noted are these: ACC-MESO-1, 48 h.
Assay [10] relates to HeLa. Kind of assay: Cytotoxicity against human HeLa cells assessed as cell growth inhibition measured after 48 hrs by WST-8 assay. The assay is classed as functional, cell-based.
For the next assay, the target named is Acetylcholinesterase (Homo sapiens, UniProt P22303). The assay can be described thus: Inhibition of AChE (unknown origin) using acetylthiocholine iodide as substrate measured after 30 mins by Ellman's method.
Another assay has as its system HL-60. Kind of assay: Cytotoxicity against human HL-60 cells assessed as cell growth inhibition measured after 72 hrs by MTT assay. The assay is classed as functional, cell-based. Particulars: HL-60, 72 h.
The test system of the next assay is NCI-H1975. The assay can be described thus: Cytotoxicity against human NCI-H1975 cells assessed as cell growth inhibition measured after 72 hrs by MTT assay. The assay is classed as functional, cell-based. The conditions noted are these: NCI-H1975, 72 h.
A short description of assay [11]: Cytotoxicity against human ACC-MESO-1 cells assessed as cell growth inhibition by MTT assay. The assay is classed as functional, cell-based.
The test system of assay [12] is HeLa. Kind of assay: Cytotoxicity against human HeLa cells assessed as cell growth inhibition by MTT assay. In kind it is functional, cell-based.

Converted amounts (≈) assume the structure as drawn.

The values that follow come from ChEMBL document CHEMBL5107956, “Natural products from mangrove sediments-derived microbes: Structural diversity, bioactivities, biosynthesis, and total synthesis” (Eur J Med Chem, 2022).

In general, IC50 refers to the midpoint of a concentration-inhibition curve. The term MIC denotes the least concentration at which growth counts as inhibited.

Chain of Acetylcholinesterase (P22303 whole entry): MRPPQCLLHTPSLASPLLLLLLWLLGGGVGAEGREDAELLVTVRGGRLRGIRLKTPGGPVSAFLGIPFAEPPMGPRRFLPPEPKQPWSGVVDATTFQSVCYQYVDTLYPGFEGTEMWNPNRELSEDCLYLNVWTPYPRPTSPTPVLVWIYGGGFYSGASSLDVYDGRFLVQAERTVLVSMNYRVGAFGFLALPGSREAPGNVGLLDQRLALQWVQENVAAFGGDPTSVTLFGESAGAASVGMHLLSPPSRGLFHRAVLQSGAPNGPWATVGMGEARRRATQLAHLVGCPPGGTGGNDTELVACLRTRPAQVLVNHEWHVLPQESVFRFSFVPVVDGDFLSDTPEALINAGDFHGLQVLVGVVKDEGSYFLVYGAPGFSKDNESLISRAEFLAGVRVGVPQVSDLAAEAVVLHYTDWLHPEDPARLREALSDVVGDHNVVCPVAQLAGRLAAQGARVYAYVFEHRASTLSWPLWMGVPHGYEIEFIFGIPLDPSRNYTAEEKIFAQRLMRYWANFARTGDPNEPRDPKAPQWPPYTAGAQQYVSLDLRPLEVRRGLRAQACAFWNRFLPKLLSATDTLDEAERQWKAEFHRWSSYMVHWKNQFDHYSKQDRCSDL
Chain of Angiotensin-converting enzyme (P12821 whole entry): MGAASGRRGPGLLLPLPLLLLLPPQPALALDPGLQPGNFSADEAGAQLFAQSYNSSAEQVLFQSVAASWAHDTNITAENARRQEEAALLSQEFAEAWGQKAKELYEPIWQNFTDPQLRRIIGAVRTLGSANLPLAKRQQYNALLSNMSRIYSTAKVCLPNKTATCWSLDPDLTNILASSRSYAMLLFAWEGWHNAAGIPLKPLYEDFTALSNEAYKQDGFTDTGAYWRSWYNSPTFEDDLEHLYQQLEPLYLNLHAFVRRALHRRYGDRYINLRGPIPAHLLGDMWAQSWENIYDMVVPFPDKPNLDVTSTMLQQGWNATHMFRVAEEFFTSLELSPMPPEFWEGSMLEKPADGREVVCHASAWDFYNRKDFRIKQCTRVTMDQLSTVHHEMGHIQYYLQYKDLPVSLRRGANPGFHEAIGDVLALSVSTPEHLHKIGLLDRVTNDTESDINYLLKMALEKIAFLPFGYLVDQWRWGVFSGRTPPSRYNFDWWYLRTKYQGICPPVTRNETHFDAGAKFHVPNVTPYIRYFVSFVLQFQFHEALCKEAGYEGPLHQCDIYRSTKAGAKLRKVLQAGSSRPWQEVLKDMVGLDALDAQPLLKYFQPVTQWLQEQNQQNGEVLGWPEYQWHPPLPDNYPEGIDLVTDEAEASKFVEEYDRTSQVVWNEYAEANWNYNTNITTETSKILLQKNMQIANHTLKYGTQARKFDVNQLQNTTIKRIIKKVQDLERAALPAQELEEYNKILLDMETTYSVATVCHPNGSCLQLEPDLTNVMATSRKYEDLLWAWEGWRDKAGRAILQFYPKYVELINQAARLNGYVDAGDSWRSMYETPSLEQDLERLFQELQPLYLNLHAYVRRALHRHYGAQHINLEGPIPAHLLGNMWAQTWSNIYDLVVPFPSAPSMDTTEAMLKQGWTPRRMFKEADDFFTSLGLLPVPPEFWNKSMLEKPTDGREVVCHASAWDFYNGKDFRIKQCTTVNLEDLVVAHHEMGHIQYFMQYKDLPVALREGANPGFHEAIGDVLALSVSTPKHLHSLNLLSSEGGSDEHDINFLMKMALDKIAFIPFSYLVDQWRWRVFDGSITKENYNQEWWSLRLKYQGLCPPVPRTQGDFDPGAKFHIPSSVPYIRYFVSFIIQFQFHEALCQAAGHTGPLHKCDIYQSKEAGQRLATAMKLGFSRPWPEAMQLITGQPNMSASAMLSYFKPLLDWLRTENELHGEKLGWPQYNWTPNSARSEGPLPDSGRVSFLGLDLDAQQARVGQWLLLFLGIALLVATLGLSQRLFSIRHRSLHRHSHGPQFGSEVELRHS

For `CCCC1C(O)=C2CCC3(C)CC(C)C(O3)C(C)C(O)C(C)C(=O)CC1OC2=O` (stereo unspecified), in assay [1], the IC50 was 2.4 µg/mL (≈ 5.87 µM).
Regarding `CCCOC(=O)c1ccccc1C(=O)OC(C)CC` (stereo unspecified), the MIC in the assay on Proteus vulgaris stood at 4 µg/mL (≈ 15.1 µM).
`CC(=O)C[C@]1(O)C(=O)C2=C3O[C@H](C)C(C)(C)[C@]3(O)C(=O)c3c(C)cc(O)c(c32)C1=O`: in assay [2], the IC50 came to 11.3 µM.
As to `CC(=C\C(=O)O)/C=C(\C)CC(C)/C=C/CC[C@H]1OC(=O)[C@@H]1CO` (stereo partly specified), the EC50 in assay [3] is 38.1 µg/mL (≈ 118 µM).
Take `CC(=O)O[C@@H]1C[C@H](C)[C@@]23CC=C(C)[C@H](C2)C[C@@](C)(O)[C@@H]13`: the minimal inhibitory concentration (MIC) in assay [4] was found to be 0.125 µg/mL (≈ 0.449 µM).
With `CC(O)[C@H](NC(=O)c1cccc(NC=O)c1O)C(=O)O[C@@H](C)[C@H](OC(=O)Cc1ccccc1)[C@@H](C)C(=O)O` (stereo partly specified), the values for the MIC (in the assay with Staphylococcus aureus; in [5]) were 32 µg/mL (≈ 60.3 µM) and 8 µg/mL (≈ 15.1 µM), respectively.
Turning to `C=CCOc1ccccc1O` [1-hydroxy-2-allyloxybenzene], the MIC with Aspergillus niger, in the assay with Candida albicans [6] and in the assay with Saccharomyces cerevisiae was 200 µg/mL (≈ 1330 µM) throughout. The IC50 in [7] was found to be 22 µg/mL (≈ 146 µM).
On to `CCC(C)C1OC(=O)/C=C/C=C/C=C/C=C/C=C/CC(O)CC(O)CC(O)CC(O)CC(O)CC(O)CC(O)CC(O)/C=C/C1C` (stereo unspecified), for which, in the assay on Candida albicans [8], the MIC came to 25 µM (≈ 16.3 µg/mL).
`CCCCCC[C@@H](O)[C@@H]1C(=O)O[C@H](C)[C@@H](O)/C=C/C=C/C=C/C=C/C=C(\C)[C@@H](O)[C@H](O)[C@@H](O)C[C@H](O)C[C@H](O)C[C@@H](O)C[C@@H](O)C[C@@H]1O`: the values for the LC50 with Meloidogyne incognita and in the assay with Meloidogyne javanica were 7.64 µg/mL (≈ 11.2 µM) and 7.83 µg/mL (≈ 11.4 µM), respectively.
Regarding `Cc1ccc(OC(=O)CCN)cc1`, the IC50 in the assay with SMMC-7721 is 22 µg/mL (≈ 123 µM).
In the case of `CC(C)[C@@H](C)/C=C/[C@@H](C)[C@H]1CC[C@H]2C3=CC(=O)N(CCO)[C@@]3(O)CC[C@]12C`, the IC50 with SF-268 was determined as 13 µg/mL (≈ 34.6 µM); with MCF7, 18.1 µg/mL (≈ 48.2 µM); in the assay with NCI-H460 it was 23.5 µg/mL (≈ 62.6 µM).
Turning to `O=C1CCC(=O)O[C@@H]2[C@@H](O)[C@H](O)[C@@H](COC(=O)CCC(=O)O[C@@H]3[C@@H](O)[C@H](O)[C@@H](CO1)O[C@@H]3O)O[C@@H]2O`, the IC50 was determined as 48 µM in assay [9] and 37 µM in the assay on HeLa [10].
As for `CC1=CC[C@]23C[C@@H]1C[C@@](C)(O)[C@H]2[C@H](O)C[C@@H]3C`, the MIC in assay [4] was determined as 1 µg/mL (≈ 4.23 µM).
Compound `C[C@H]1CN2C(=O)[C@]34Cc5c([nH]c6c7c(ccc56)OC(C)(C)CC7=O)C(C)(C)[C@@H]3C[C@@]2(C1)C(=O)N4` gave an IC50 on Acetylcholinesterase of 58 µM.
With `C/C=C/C1=CC(=O)[C@@]2(C(=O)c3c(OC)cc(OC)cc3C(=O)OC)O[C@H]2O1`, the IC50 in the assay on HL-60 and with NCI-H1975 was 3.7 µM each time.
Consider `CC(/C=C/C1CC1)=C\[C@@H]1[C@@H](OC(=O)CC(C)C)[C@](C)(O)[C@@H]2[C@H]3O[C@H]3CCN12`, for which the IC50 in [11] is 39 µM; with HeLa [12] it was 29 µM.
